Results as given in PubChem BioAssay AID1963984 (Molecular Pharmacology Branch, DTP, NCI, 2024).

System: 233499-124-R-J3-PDC spheroids with HUVEC/MSC, viability
Assay: Anticancer human tumor 233499-124-R-J3-PDC patient-derived colon adenocarcinoma cell line growth inhibition [PI3K]
Settings: for IC50: curve of first compound; for viability, T/C: stronger effect = lower value
Outline: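 High-throughput combination screen: PI3K inhibitors crossed with targeted small molecules on complex spheroids of tumor cells, HUVEC and MSCs at 37 degrees C, 5% CO2. Top concentration was at or near clinical Cmax (otherwise 10 microM), with half-log decrements.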

[1] = second compound 0.0316 µM, first compound 0.0316 µM
[2] = second compound 0.0316 µM, first compound 0.1 µM
[3] = second compound 0.1 µM, first compound 0.0316 µM
[4] = second compound 0.1 µM, first compound 0.1 µM
[5] = second compound 0.316 µM, first compound 0.0316 µM
[6] = second compound 0.316 µM, first compound 0.1 µM
[7] = second compound 1 µM, first compound 0.0316 µM
[8] = second compound 1 µM, first compound 0.1 µM
[9] = second compound 3.16 µM, first compound 0.0316 µM
[10] = second compound 3.16 µM, first compound 0.1 µM
[11] = second compound 10 µM, first compound 0.0316 µM
[12] = second compound 10 µM, first compound 0.1 µM
[13] = second compound 0.0316 µM, first compound 0.316 µM
[14] = second compound 0.0316 µM, first compound 1 µM
[15] = second compound 0.0316 µM, first compound 3.16 µM
[16] = second compound 0.0316 µM, first compound 10 µM
[17] = second compound 0.1 µM, first compound 0.316 µM
[18] = second compound 0.1 µM, first compound 1 µM
[19] = second compound 0.1 µM, first compound 3.16 µM
[20] = second compound 0.1 µM, first compound 10 µM
[21] = second compound 0.316 µM, first compound 0.316 µM
[22] = second compound 0.316 µM, first compound 1 µM
[23] = second compound 0.316 µM, first compound 3.16 µM
[24] = second compound 0.316 µM, first compound 10 µM
[25] = second compound 1 µM, first compound 0.316 µM
[26] = second compound 1 µM, first compound 1 µM
[27] = second compound 1 µM, first compound 3.16 µM
[28] = second compound 1 µM, first compound 10 µM
[29] = second compound 3.16 µM, first compound 0.316 µM
[30] = second compound 3.16 µM, first compound 1 µM
[31] = second compound 3.16 µM, first compound 3.16 µM
[32] = second compound 3.16 µM, first compound 10 µM
[33] = second compound 10 µM, first compound 0.316 µM
[34] = second compound 10 µM, first compound 1 µM
[35] = second compound 10 µM, first compound 3.16 µM
[36] = second compound 10 µM, first compound 10 µM
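Also: spheroids exposed to agents for seven days before readout.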
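For viability, T/C in this document: percent viability relative to DMSO vehicle control taken as 100%.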

## CC(C)n1nc(-c2ccc3oc(N)nc3c2)c2c(N)ncnc21 + Cc1nc(NC(=O)N2CCCC2C(N)=O)sc1-c1ccnc(C(C)(C)C(F)(F)F)c1
Second compound 0.0316 µM
  IC50: > 0.1 µM
Second compound 0.1 µM
  IC50: 0.0859 µM
Second compound 0.316 µM
  IC50: > 0.1 µM
Second compound 1 µM
  IC50: 0.0375 µM
Second compound 3.16 µM
  IC50: 0.00581 µM
Second compound 10 µM
  IC50: < 0.000316 µM
Second compound 0.0316 µM, first compound 0.000316 µM
  viability, T/C: 103%
Second compound 0.0316 µM, first compound 0.001 µM
  viability, T/C: 90.9%
Second compound 0.0316 µM, first compound 0.00316 µM
  viability, T/C: 103%
Second compound 0.0316 µM, first compound 0.01 µM
  viability, T/C: 64.7%
[1]
  viability, T/C: 92.6%
[2]
  viability, T/C: 55.2%
Second compound 0.1 µM, first compound 0.000316 µM
  viability, T/C: 99.4%
Second compound 0.1 µM, first compound 0.001 µM
  viability, T/C: 92.4%
Second compound 0.1 µM, first compound 0.00316 µM
  viability, T/C: 54.8%
Second compound 0.1 µM, first compound 0.01 µM
  viability, T/C: 86%
[3]
  viability, T/C: 84%
[4]
  viability, T/C: 45.1%
Second compound 0.316 µM, first compound 0.000316 µM
  viability, T/C: 89.9%
Second compound 0.316 µM, first compound 0.001 µM
  viability, T/C: 81%
Second compound 0.316 µM, first compound 0.00316 µM
  viability, T/C: 90.1%
Second compound 0.316 µM, first compound 0.01 µM
  viability, T/C: 79.1%
[5]
  viability, T/C: 67.7%
[6]
  viability, T/C: 53.9%
Second compound 1 µM, first compound 0.000316 µM
  viability, T/C: 68%
Second compound 1 µM, first compound 0.001 µM
  viability, T/C: 71.8%
Second compound 1 µM, first compound 0.00316 µM
  viability, T/C: 82.1%
Second compound 1 µM, first compound 0.01 µM
  viability, T/C: 62.4%
[7]
  viability, T/C: 55.3%
[8]
  viability, T/C: 25.2%
Second compound 3.16 µM, first compound 0.000316 µM
  viability, T/C: 61.2%
Second compound 3.16 µM, first compound 0.001 µM
  viability, T/C: 50.6%
Second compound 3.16 µM, first compound 0.00316 µM
  viability, T/C: 73%
Second compound 3.16 µM, first compound 0.01 µM
  viability, T/C: 39.7%
[9]
  viability, T/C: 43.7%
[10]
  viability, T/C: 30.7%
Second compound 10 µM, first compound 0.000316 µM
  viability, T/C: 43.7%
Second compound 10 µM, first compound 0.001 µM
  viability, T/C: 26.4%
Second compound 10 µM, first compound 0.00316 µM
  viability, T/C: 29.7%
Second compound 10 µM, first compound 0.01 µM
  viability, T/C: 26.3%
[11]
  viability, T/C: 24.5%
[12]
  viability, T/C: 6.69%

## CC1(C)CCC(CN2CCN(c3ccc(C(=O)NS(=O)(=O)c4ccc(NCC5CCOCC5)c([N+](=O)[O-])c4)c(Oc4cnc5[nH]ccc5c4)c3)CC2)=C(c2ccc(Cl)cc2)C1 + Cc1nc(NC(=O)N2CCCC2C(N)=O)sc1-c1ccnc(C(C)(C)C(F)(F)F)c1
Second compound 0.0316 µM
  IC50: 6.18 µM
Second compound 0.1 µM
  IC50: 5.47 µM
Second compound 0.316 µM
  IC50: 5.38 µM
Second compound 1 µM
  IC50: 4.33 µM
Second compound 3.16 µM
  IC50: 2.61 µM
Second compound 10 µM
  IC50: < 0.0316 µM
[1]
  viability, T/C: 110%
[2]
  viability, T/C: 104%
[13]
  viability, T/C: 107%
[14]
  viability, T/C: 115%
[15]
  viability, T/C: 106%
[16]
  viability, T/C: 10.1%
[3]
  viability, T/C: 112%
[4]
  viability, T/C: 98.1%
[17]
  viability, T/C: 66.5%
[18]
  viability, T/C: 109%
[19]
  viability, T/C: 93%
[20]
  viability, T/C: 2.57%
[5]
  viability, T/C: 99.9%
[6]
  viability, T/C: 89.3%
[21]
  viability, T/C: 76%
[22]
  viability, T/C: 88.3%
[23]
  viability, T/C: 88.9%
[24]
  viability, T/C: 5.24%
[7]
  viability, T/C: 97.6%
[8]
  viability, T/C: 73.7%
[25]
  viability, T/C: 80.8%
[26]
  viability, T/C: 82.8%
[27]
  viability, T/C: 67%
[28]
  viability, T/C: 4.35%
[9]
  viability, T/C: 61.9%
[10]
  viability, T/C: 51.9%
[29]
  viability, T/C: 61.8%
[30]
  viability, T/C: 62.4%
[31]
  viability, T/C: 48.1%
[32]
  viability, T/C: 1.21%
[11]
  viability, T/C: 32.1%
[12]
  viability, T/C: 26.4%
[33]
  viability, T/C: 22.6%
[34]
  viability, T/C: 31.1%
[35]
  viability, T/C: 9.66%
[36]
  viability, T/C: 2.29%

## C[C@@H](NC(=O)c1ncnc(N)c1Cl)c1ncc(C(=O)Nc2cc(C(F)(F)F)c(Cl)cn2)s1 + Cc1nc(NC(=O)N2CCCC2C(N)=O)sc1-c1ccnc(C(C)(C)C(F)(F)F)c1
Second compound 0.0316 µM
  IC50: > 10 µM
Second compound 0.1 µM
  IC50: > 10 µM
Second compound 0.316 µM
  IC50: > 10 µM
Second compound 1 µM
  IC50: 9.68 µM
Second compound 3.16 µM
  IC50: 0.458 µM
Second compound 10 µM
  IC50: < 0.0316 µM
[1]
  viability, T/C: 101%
[2]
  viability, T/C: 75.5%
[13]
  viability, T/C: 113%
[14]
  viability, T/C: 136%
[15]
  viability, T/C: 112%
[16]
  viability, T/C: 106%
[3]
  viability, T/C: 109%
[4]
  viability, T/C: 90.3%
[17]
  viability, T/C: 104%
[18]
  viability, T/C: 110%
[19]
  viability, T/C: 104%
[20]
  viability, T/C: 54.8%
[5]
  viability, T/C: 111%
[6]
  viability, T/C: 104%
[21]
  viability, T/C: 87.7%
[22]
  viability, T/C: 63.9%
[23]
  viability, T/C: 92.8%
[24]
  viability, T/C: 79.4%
[7]
  viability, T/C: 90.4%
[8]
  viability, T/C: 93.3%
[25]
  viability, T/C: 69%
[26]
  viability, T/C: 94.4%
[27]
  viability, T/C: 99.4%
[28]
  viability, T/C: 48.8%
[9]
  viability, T/C: 51.5%
[10]
  viability, T/C: 71.5%
[29]
  viability, T/C: 52%
[30]
  viability, T/C: 42.5%
[31]
  viability, T/C: 37.9%
[32]
  viability, T/C: 35.8%
[11]
  viability, T/C: 33.1%
[12]
  viability, T/C: 29.2%
[33]
  viability, T/C: 34.1%
[34]
  viability, T/C: 38%
[35]
  viability, T/C: 14.4%
[36]
  viability, T/C: 14%
